Where two headings read alike, the source gives them in different places.
Tests used:
[1] = test system: MCF7 cells; experiment: Cell proliferation assay (WST-1), MCF7; type: cell-based, human
Protocol: (§1) All cells were tested for mycoplasma using Real-Time PCR Mycoplasma Detection Kit (Akron Biotech, Boca Raton, FL).
(§2) All assays were performed in triplicate.

[2] = Pharmacokinetic studies in mice after single s.c. or oral dose
Protocol: For s.c. injection, each compound was dissolved in DMSO and then mixed with corn oil for a total injection volume of 100 μL (10% DSMO+90% corn oil) per mouse. For oral gavage, compounds were administered in a 200 μL formulation of 9/0.5/0.5/90 parts of PEG400/Tween80/Povidone/0.5% Carboxymethylcellulose. […] Compounds were quantified by LC-MS/MS at the University of Illinois Metabolomics Core Facility. The data were fitted to a non-compartment model.

[3] = test system: DT22 cells; experiment: Cell proliferation assay (WST-1), DT22; type: cell-based, human; details: Homo sapiens, DT-22, inhibition of cell proliferation
Protocol: as §1, §2

[4] = Homo sapiens, MCF7, inhibition of cell proliferation, read-out: IC50 MCF7
[5] = inhibition of cell proliferation, read-out: IC50 MCF7

| Molecule | IC50 [1, 4] [µM] | further results |
| --- | --- | --- |
| c1cc(C(=C2C3CC4CC(C3)CC2C4)c2ccc(OCCCCN3CCCCCC3)cc2)ccc1OCCCCN1CCCCCC1 [NB-121, 1,1′-((((((5r,7r)-adamantan-2-ylidene)methylene)bis(4,1-phenylene))bis(oxy))bis(butane-4,1-diyl))bis(azepane)] | 1.6 | – |
| c1cc(C(=C2C3CC4CC(C3)CC2C4)c2ccc(OCCCCCCN3CCCCCC3)cc2)ccc1OCCCCCCN1CCCCCC1 [NB-72, 1,1′-((((((5r,7r)-Adamantan-2-ylidene)methylene)bis(4,1-phenylene))bis(oxy))bis(hexane-6,1-diyl))bis(azepane)] | – | IC50 ([1]; Homo sapiens, MCF7, read-out: IC50 MCF7): 0.7 µM; IC50 [3]: 0.7 µM |
| c1cc(C(=C2C3CC4CC(C3)CC2C4)c2ccc(OCCCCCN3CCCCC3)cc2)ccc1OCCCCCN1CCCCC1 [NB-122, 1,1′-((((((5r,7r)-adamantan-2-ylidene)methylene)bis(4,1-phenylene))bis(oxy))bis(pentane-5,1-diyl))dipiperidine] | 1.2 | – |
| 1-(6-(4-((Z)-((5S,7S)-adamantan-2-ylidene)(4-chlorophenyl)methyl)phenoxy)hexyl)-1-methylazepan-1-ium iodide [NB-85] | – | IC50 [1, 5]: 9.8 µM |
| Clc1ccc(C(=C2C3CC4CC(C3)CC2C4)c2ccc(OCCCCCCN3CCCCCC3)cc2)cc1 [NB-119, 1-(6-(4-((Z)-((5S,7S)-Adamantan-2-ylidene)(4-chlorophenyl)methyl)phenoxy)hexyl)azepane] | 4.2 | – |
| CN1CC[N+](C)(CCCCCCOc2ccc(C(=C3C4CC5CC(C4)CC3C5)c3ccc(OCCCCCC[N+]4(C)CCN(C)CC4)cc3)cc2)CC1 [NB-69, 1,1′-((((((5r,7r)-adamantan-2-ylidene)methylene)bis(4,1-phenylene))bis(oxy))bis(hexane-6,1-diyl))bis(1,4-dimethylpiperazin-1-ium) dimethanesulfonate] | 6 | – |
| 1-(6-(4-((Z)-((5S,7S)-adamantan-2-ylidene)(4-chlorophenyl)methyl)phenoxy)hexyl)-1H-imidazole [NB-60] | – | IC50 [1, 5]: 16 µM |
| c1cn(CCCCCCOc2ccc(C(=C3C4CC5CC(C4)CC3C5)c3ccc(OCCCCCCn4ccnc4)cc3)cc2)cn1 [NB-61, 1,1′-((((((5r,7r)-adamantan-2-ylidene)methylene)bis(4,1-phenylene))bis(oxy))bis(hexane-6,1-diyl))bis(1H-imidazole)] | 7.5 | – |
| 1-(6-(4-((Z)-((5S,7S)-adamantan-2-ylidene)(4-chlorophenyl)methyl)phenoxy)hexyl)-4-methylpiperazine [NB-64] | – | IC50 [1, 5]: 3 µM |
| C[n+]1ccn(CCCCCCOc2ccc(C(=C3C4CC5CC(C4)CC3C5)c3ccc(Cl)cc3)cc2)c1 [NB-62, 1-(6-(4-((Z)-((5S,7S)-adamantan-2-ylidene)(4-chlorophenyl)methyl)phenoxy)hexyl)-3-methyl-1H-imidazol-3-ium iodide] | 5.5 | half-life ([2]; female, CD-1, mouse, plasma, sc, 40 mg/kg): 36.8 h; AUC(0-t) ([2]; female, CD-1, mouse, plasma, sc, 40 mg/kg, PK s.c. AUC0-48, mice, 40 mg/kg s.c.): 150 µM·h; PK p.o. AUC0-48 ([2]; mice, 40 mg/kg p.o.): too low to measure |
| c1cc(C(=C2C3CC4CC(C3)CC2C4)c2ccc(OCCCCN3CCCCC3)cc2)ccc1OCCCCN1CCCCC1 [NB-120, 1,1′-((((((5r,7r)-adamantan-2-ylidene)methylene)bis(4,1-phenylene))bis(oxy))bis(butane-4,1-diyl))dipiperidine] | 0.9 | – |
| (S)-1-(6-(4-((Z)-((5S,7S)-adamantan-2-ylidene)(4-chlorophenyl)methyl)phenoxy)hexyl)-1-methyl-1λ^4-piperidin-2-ylium iodide [NB-84] | – | IC50 [1, 5]: 6 µM |
| Clc1ccc(C(=C2C3CC4CC(C3)CC2C4)c2ccc(OCCCCCCN3CCCCC3)cc2)cc1 [NB-118, 1-(6-(4-((Z)-((5S,7S)-Adamantan-2-ylidene)(4-chlorophenyl)methyl)phenoxy)hexyl)piperidine] | 4.4 | – |
| c1cc(C(=C2C3CC4CC(C3)CC2C4)c2ccc(OCCCCCN3CCCCCC3)cc2)ccc1OCCCCCN1CCCCCC1 [NB-123, 1,1′-((((((5r,7r)-adamantan-2-ylidene)methylene)bis(4,1-phenylene))bis(oxy))bis(pentane-5,1-diyl))bis(azepane)] | 1 | – |

Now from value to molecule, other results behind:

| IC50 [1, 4] [µM] | Molecule | further results |
| --- | --- | --- |
| 1.6 | OC1CCN(CCCCCCOc2ccc(C(=C3C4CC5CC(C4)CC3C5)c3ccc(OCCCCCCN4CCC(O)CC4)cc3)cc2)CC1 [NB-132, 1,1′-((((((5r,7r)-adamantan-2-ylidene)methylene)bis(4,1-phenylene))bis(oxy))bis(hexane-6,1-diyl))bis(piperidin-4-ol)] | – |
| 0.9 | C[N+]1(CCCCCCOc2ccc(C(=C3C4CC5CC(C4)CC3C5)c3ccc(OCCCCCC[N+]4(C)CCC[C@H]4CO)cc3)cc2)CCC[C@H]1CO (stereo partly drawn) [NB-139, (1R,1′R,2S,2'S)-1,1′-((((((5r,7r)-adamantan-2-ylidene)methylene)bis(4,1-phenylene))bis(oxy))bis(hexane-6,1-diyl))bis(2-(hydroxymethyl)-1-methylpyrrolidin-1-ium) diiodide] | – |
| 0.9 | OCCN(CCO)CCCCCCOc1ccc(C(=C2C3CC4CC(C3)CC2C4)c2ccc(OCCCCCCN(CCO)CCO)cc2)cc1 [NB-131, 2,2′,2″,2″′-(((((((5r,7r)-adamantan-2-ylidene)methylene)bis(4,1-phenylene))bis(oxy))bis(hexane-6,1-diyl))bis(azanetriyl))tetrakis(ethan-1-ol)] | PK p.o. AUC0-48 ([2]; mice, 40 mg/kg p.o.): too low to measure |
| 1.1 | CC1(O)CN(CCCCCCOc2ccc(C(=C3C4CC5CC(C4)CC3C5)c3ccc(OCCCCCCN4CC(C)(O)C4)cc3)cc2)C1 [NB-143, 1,1′-((((((5r,7r)-adamantan-2-ylidene)methylene)bis(4,1-phenylene))bis(oxy))bis(hexane-6,1-diyl))bis(3-methylazetidin-3-ol)] | – |
| 0.7 | OC[C@@H]1CCCN1CCCCCCOc1ccc(C(=C2C3CC4CC(C3)CC2C4)c2ccc(OCCCCCCN3CCC[C@H]3CO)cc2)cc1 [NB-138, ((2S,2'S)-((((((5r,7r)-adamantan-2-ylidene)methylene)bis(4,1-phenylene))bis(oxy))bis(hexane-6,1-diyl))bis(pyrrolidine-1,2-diyl))dimethanol] | PK p.o. AUC0-48 ([2]; mice, 40 mg/kg p.o.): 1.84 µM·h; PK p.o. t1/2 ([2]; mice, 40 mg/kg p.o.): 25.0 h |
| 0.9 | OC1CN(CCCCCCOc2ccc(C(=C3C4CC5CC(C4)CC3C5)c3ccc(OCCCCCCN4CC(O)C4)cc3)cc2)C1 [NB-145, 1,1′-((((((5r,7r)-adamantan-2-ylidene)methylene)bis(4,1-phenylene))bis(oxy))bis(hexane-6,1-diyl))bis(azetidin-3-ol)] | PK p.o. AUC0-48 ([2]; mice, 40 mg/kg p.o.): too low to measure |
| 1.8 | CC1(O)C[N+](C)(CCCCCCOc2ccc(C(=C3C4CC5CC(C4)CC3C5)c3ccc(OCCCCCC[N+]4(C)CC(C)(O)C4)cc3)cc2)C1 (centres unmarked) [NB-144, 1,1′-((((((5r,7r)-adamantan-2-ylidene)methylene)bis(4,1-phenylene))bis(oxy))bis(hexane-6,1-diyl))bis(3-hydroxy-1,3-dimethylazetidin-1-ium) diiodide] | – |
| 1 | C[N+]1(CCCCCCOc2ccc(C(=C3C4CC5CC(C4)CC3C5)c3ccc(OCCCCCC[N+]4(C)CCC(O)CC4)cc3)cc2)CCC(O)CC1 (centres unmarked) [NB-136, 1,1′-((((((5r,7r)-adamantan-2-ylidene)methylene)bis(4,1-phenylene))bis(oxy))bis(hexane-6,1-diyl))bis(4-hydroxy-1-methylpiperidin-1-ium) diiodide] | – |
| 2.4 | OCC[N+]1(CCCCCCOc2ccc(C(=C3C4CC5CC(C4)CC3C5)c3ccc(OCCCCCC[N+]4(CCO)CCCCCC4)cc3)cc2)CCCCCC1 [NB-142, 1,1′-((((((5r,7r)-adamantan-2-ylidene)methylene)bis(4,1-phenylene))bis(oxy))bis(hexane-6,1-diyl))bis(1-(2-hydroxyethyl)azepan-1-ium) diiodide] | – |
| 1.2 | CCN(CCO)CCCCCCOc1ccc(C(=C2C3CC4CC(C3)CC2C4)c2ccc(OCCCCCCN(CC)CCO)cc2)cc1 [NB-130, 2,2′-(((((((5r,7r)-adamantan-2-ylidene)methylene)bis(4,1-phenylene))bis(oxy))bis(hexane-6,1-diyl))bis(ethylazanediyl))bis(ethan-1-ol)] | PK p.o. AUC0-48 ([2]; mice, 40 mg/kg p.o.): too low to measure |
| 1.6 | OCC[N+]1(CCCCCCOc2ccc(C(=C3C4CC5CC(C4)CC3C5)c3ccc(OCCCCCC[N+]4(CCO)CCCC4)cc3)cc2)CCCC1 [NB-140, 1,1′-((((((5r,7r)-adamantan-2-ylidene)methylene)bis(4,1-phenylene))bis(oxy))bis(hexane-6,1-diyl))bis(1-(2-hydroxyethyl)pyrrolidin-1-ium) diiodide] | – |
| 0.8 | c1cc(C(=C2C3CC4CC(C3)CC2C4)c2ccc(OCCCCCCN3CCC3)cc2)ccc1OCCCCCCN1CCC1 [NB-133, 1,1′-((((((5r,7r)-adamantan-2-ylidene)methylene)bis(4,1-phenylene))bis(oxy))bis(hexane-6,1-diyl))bis(azetidine)] | – |
| 2.1 | C[N+](CCO)(CCO)CCCCCCOc1ccc(C(=C2C3CC4CC(C3)CC2C4)c2ccc(OCCCCCC[N+](C)(CCO)CCO)cc2)cc1 [NB-135, 6,6′-(((((5r,7r)-adamantan-2-ylidene)methylene)bis(4,1-phenylene))bis(oxy))bis(N,N-bis(2-hydroxyethyl)-N-methylhexan-1-aminium) diiodide] | – |
| 3.6 | OCC[N+]1(CCCCCCOc2ccc(C(=C3C4CC5CC(C4)CC3C5)c3ccc(OCCCCCC[N+]4(CCO)CCCCC4)cc3)cc2)CCCCC1 [NB-141, 1,1′-((((((5r,7r)-adamantan-2-ylidene)methylene)bis(4,1-phenylene))bis(oxy))bis(hexane-6,1-diyl))bis(1-(2-hydroxyethyl)piperidin-1-ium) diiodide] | – |
| 2.3 | C[N+]1(CCCCCCOc2ccc(C(=C3C4CC5CC(C4)CC3C5)c3ccc(OCCCCCC[N+]4(C)CCC4)cc3)cc2)CCC1 [NB-137, 1,1′-((((((5r,7r)-adamantan-2-ylidene)methylene)bis(4,1-phenylene))bis(oxy))bis(hexane-6,1-diyl))bis(1-methylazetidin-1-ium) diiodide] | – |

Reference: patent US12187662B2, “FOXM1 inhibitor compositions and methods of using the same” (The Board of Trustees of the University of Illinois, priority 2018, dated 2025)
